Literature values in US20130338098A1, “Topical Analgesic Compositions Containing Aliphatic Polyamines and Methods of Using Same” (Dermal Therapy (Barbados) Inc., priority 2000, published 2013).

Details: orally, intravenously, intraperitoneally, and intramuscularly

NCCCCN [putrescine, 1,4-diaminobutane]
Toxicity: very low toxicity
